# Measurements published in ChEMBL document CHEMBL1201862, “PubChem BioAssay data set” (2004).
# The source made the active and inactive calls.
# Legend:
# [1] = target: 72 kDa type IV collagenase (Homo sapiens, UniProt P08253); assay: Dose Response validation of uHTS RPN11 inhibitor hits using a MMP-2 Fluorescence assay.; assay type: functional
# [2] = target: Prothrombin (Bos taurus, UniProt P00735); assay: thrombin protease inhibitors – biochemical, fluorescence polarization, uHTS hits, dose response (AID 602369); assay type: functional
# [3] = target: 26S proteasome non-ATPase regulatory subunit 14 (Homo sapiens, UniProt O00487); assay: inhibition of proteasome subunit RPN11 – biochemical, fluorescence polarization, uHTS hits, confirmation (AID 602368); assay type: functional
# Chain of 26S proteasome non-ATPase regulatory subunit 14 (O00487 whole entry): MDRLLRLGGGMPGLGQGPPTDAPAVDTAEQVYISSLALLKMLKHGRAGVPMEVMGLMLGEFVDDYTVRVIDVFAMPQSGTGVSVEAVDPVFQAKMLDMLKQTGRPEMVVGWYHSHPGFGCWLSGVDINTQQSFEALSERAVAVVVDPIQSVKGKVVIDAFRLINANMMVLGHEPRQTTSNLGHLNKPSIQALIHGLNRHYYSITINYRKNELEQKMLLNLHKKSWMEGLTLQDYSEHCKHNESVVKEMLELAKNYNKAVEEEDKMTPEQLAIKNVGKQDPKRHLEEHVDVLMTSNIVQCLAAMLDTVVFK
# [4] = viability of HCT116 lacking mutant beta-catenin – cell-based, human colon tumor, dose response (AID 1045); assay type: functional;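 note: HCT116 colon tumor cells with beta catenin knocked out; cells exposed to compound for 60 hours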
# [5] = viability of PTEN-deleted HCT116 cells – cell-based, HCT116 PTEN knockout, dose response (AID 1047); assay type: functional;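 note: HCT116 colon tumor cells with PTEN knocked out; cells exposed to compound for 60 hours before readout; potency for loss of cell viability measured by luminescence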
# [6] = reduced cellular PGC1a acetyl-lysine signal – cell-based, cherry-picked samples, dose response (AID 720514); assay type: functional;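 note: potency may reflect raised or lowered acetylation signal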
# [7] = target: Large T antigen (Simian virus 40, UniProt P03070); assay type: functional, Betapolyomavirus macacae;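 note: Confirmatory-stage PubChem screen for compounds that inhibit SV40 T antigen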
# [8] = target: Glyceraldehyde-3-phosphate dehydrogenase (Homo sapiens, UniProt P04406)
# [9] = target: Alkaline phosphatase, placental type (Homo sapiens, UniProt P05187); assay: human placental alkaline phosphatase inhibition – biochemical, luminescence, confirmation (AID 1512); assay type: functional
# [10] = target: Nonstructural protein 1 (Influenza A virus, UniProt Q194T2); assay type: functional, Influenza A virus (A/California/07/2009(H1N1))
# [11] = target: T1, Cytochrome P450 3A4 (Homo sapiens, UniProt P08684); settings: Potency
# T1 sequence (P08684 whole entry): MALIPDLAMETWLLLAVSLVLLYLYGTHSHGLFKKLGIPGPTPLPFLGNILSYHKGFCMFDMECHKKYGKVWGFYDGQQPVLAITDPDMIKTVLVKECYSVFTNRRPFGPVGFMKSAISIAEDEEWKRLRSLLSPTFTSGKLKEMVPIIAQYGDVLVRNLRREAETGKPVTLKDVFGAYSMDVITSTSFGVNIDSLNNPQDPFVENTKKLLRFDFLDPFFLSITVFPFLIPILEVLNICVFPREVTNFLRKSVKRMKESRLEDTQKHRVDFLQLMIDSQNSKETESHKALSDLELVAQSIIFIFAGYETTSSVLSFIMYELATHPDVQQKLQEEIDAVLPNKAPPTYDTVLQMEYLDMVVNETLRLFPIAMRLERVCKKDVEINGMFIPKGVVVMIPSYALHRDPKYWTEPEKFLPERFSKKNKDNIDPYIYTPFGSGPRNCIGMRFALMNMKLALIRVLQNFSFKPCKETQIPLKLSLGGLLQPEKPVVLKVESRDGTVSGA
# [12] = target: Prothrombin (Homo sapiens, UniProt P00734); assay: Thrombin 1536 HTS Dose Response Confirmation. [Related pubchem assays: 1046 (Thrombin 1536 HTS; hits were confirmed in this assay)]; assay type: functional
# [13] = test system: H9c2; assay: cells; assay type: functional, cell-based; settings: Rattus norvegicus, H9c2, Myocardium;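 note: confirmatory concentration-response retest of ultra-high-throughput screening hits for modulation of myocardial damage; cell death induced by hydrogen peroxide oxidative stress; compound pretreatment for 60 min then peroxide exposure for 2 h; potency is for protecting the cells against peroxide damage rather than for killing them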
# [14] = target: Eukaryotic translation initiation factor 4E (Mus musculus, UniProt P63073); assay: blockers of eIF4G binding by eIF4E – biochemical, TR-FRET, dose response (AID 855); assay type: functional;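 note: potency for disrupting eIF4E binding to eIF4GI seen as loss of FRET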
# Chain of Eukaryotic translation initiation factor 4E (P63073 whole entry): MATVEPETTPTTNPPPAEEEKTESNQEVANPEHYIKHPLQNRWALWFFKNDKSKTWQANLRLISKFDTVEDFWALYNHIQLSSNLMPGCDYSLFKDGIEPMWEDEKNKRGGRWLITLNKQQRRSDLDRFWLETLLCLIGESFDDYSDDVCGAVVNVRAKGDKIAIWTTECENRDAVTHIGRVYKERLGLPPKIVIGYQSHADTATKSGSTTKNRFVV
# [15] = target: DNA dC->dU-editing enzyme APOBEC-3G (Homo sapiens, UniProt Q9HC16); assay: Dose Response confirmation of small molecule APOBEC3G DNA Deaminase Inhibitors via a fluorescence-based single-stranded DNA deaminase assay. [Related pubchem assays (depositor defined):AID493012, AID493028]; assay type: functional
# [16] = target: Nucleotide-binding oligomerization domain-containing protein 2 (Homo sapiens, UniProt Q9HC29); assay: inhibition of NOD2-driven NF-kB reporter – cell-based, luminescence, uHTS, HEK293 (AID 1566); assay type: functional
# [17] = target: T2, Calpain-2 catalytic subunit (Sus scrofa, UniProt P43367); assay: m-calpain protease blockers, concentration series – biochemical, fluorogenic peptide substrate, dose response (AID 1420); assay type: functional
# T2 sequence (P43367 whole entry): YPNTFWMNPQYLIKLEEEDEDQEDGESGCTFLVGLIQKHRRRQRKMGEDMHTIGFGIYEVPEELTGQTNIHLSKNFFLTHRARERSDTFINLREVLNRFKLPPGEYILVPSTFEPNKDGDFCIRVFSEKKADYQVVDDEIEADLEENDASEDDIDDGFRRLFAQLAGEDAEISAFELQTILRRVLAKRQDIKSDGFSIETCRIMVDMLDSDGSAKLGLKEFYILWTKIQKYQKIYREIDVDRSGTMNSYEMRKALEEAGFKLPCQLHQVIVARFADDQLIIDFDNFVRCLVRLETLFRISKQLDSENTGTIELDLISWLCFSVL
# [18] = test system: HEK293; assay: inhibition of NOD1-driven NF-kB reporter – cell-based, luminescence, uHTS, primary screen (AID 1578); assay type: functional; settings: Homo sapiens
# [19] = test system: HEK293; assay: cells; assay type: functional, cell-based; settings: Homo sapiens
# [20] = test system: HEK293; assay: cells; assay type: functional, cell-based; settings: Homo sapiens; remark: listed apart in the source
# [21] = test system: HEK293; assay: cells; assay type: functional, cell-based; settings: Homo sapiens; remark: listed apart in the source
# [22] = test system: HEK293; assay: NOD2 signaling inhibitors in MDP-stimulated cells, cell-based, uHTS, luminescence (AID 2001); assay type: functional; settings: Homo sapiens
# [23] = target: Cytochrome P450 2C9 (Homo sapiens, UniProt P11712)
# [24] = target: T3, Heat shock factor protein 1 (Mus musculus, UniProt P38532); assay: decrease of HSF1-responsive luciferase luminescence – cell-based, NIH3T3, dose retest, confirmation (AID 2382); assay type: functional;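 note: NIH3T3 fibroblasts with HSF1-driven luciferase reporter stressed by proteasome inhibitor MG132; luminescence from HSF1-driven luciferase expression after 8 hours of MG132 stress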
# T3 sequence (P38532 whole entry): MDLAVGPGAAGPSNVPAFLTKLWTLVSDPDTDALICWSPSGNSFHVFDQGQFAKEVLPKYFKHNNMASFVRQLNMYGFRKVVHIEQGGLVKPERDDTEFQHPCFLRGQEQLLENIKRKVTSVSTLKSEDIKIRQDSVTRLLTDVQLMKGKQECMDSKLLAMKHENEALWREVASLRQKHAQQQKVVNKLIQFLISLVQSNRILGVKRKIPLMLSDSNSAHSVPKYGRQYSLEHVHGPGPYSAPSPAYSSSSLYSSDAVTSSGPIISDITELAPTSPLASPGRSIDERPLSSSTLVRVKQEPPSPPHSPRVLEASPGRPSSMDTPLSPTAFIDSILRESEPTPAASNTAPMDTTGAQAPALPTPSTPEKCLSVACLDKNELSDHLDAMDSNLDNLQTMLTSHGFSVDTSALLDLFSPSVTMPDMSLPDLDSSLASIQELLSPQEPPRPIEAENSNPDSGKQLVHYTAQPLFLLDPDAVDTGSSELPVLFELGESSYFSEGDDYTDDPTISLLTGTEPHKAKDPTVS
# [25] = target: T4, Voltage-gated N-type calcium channel alpha-1B subunit/Amyloid beta A4 precursor protein-binding family A member 1 (Homo sapiens, UniProt Q00975+Q02410); assay type: protein assay
# T4 sequence (Q00975 whole entry): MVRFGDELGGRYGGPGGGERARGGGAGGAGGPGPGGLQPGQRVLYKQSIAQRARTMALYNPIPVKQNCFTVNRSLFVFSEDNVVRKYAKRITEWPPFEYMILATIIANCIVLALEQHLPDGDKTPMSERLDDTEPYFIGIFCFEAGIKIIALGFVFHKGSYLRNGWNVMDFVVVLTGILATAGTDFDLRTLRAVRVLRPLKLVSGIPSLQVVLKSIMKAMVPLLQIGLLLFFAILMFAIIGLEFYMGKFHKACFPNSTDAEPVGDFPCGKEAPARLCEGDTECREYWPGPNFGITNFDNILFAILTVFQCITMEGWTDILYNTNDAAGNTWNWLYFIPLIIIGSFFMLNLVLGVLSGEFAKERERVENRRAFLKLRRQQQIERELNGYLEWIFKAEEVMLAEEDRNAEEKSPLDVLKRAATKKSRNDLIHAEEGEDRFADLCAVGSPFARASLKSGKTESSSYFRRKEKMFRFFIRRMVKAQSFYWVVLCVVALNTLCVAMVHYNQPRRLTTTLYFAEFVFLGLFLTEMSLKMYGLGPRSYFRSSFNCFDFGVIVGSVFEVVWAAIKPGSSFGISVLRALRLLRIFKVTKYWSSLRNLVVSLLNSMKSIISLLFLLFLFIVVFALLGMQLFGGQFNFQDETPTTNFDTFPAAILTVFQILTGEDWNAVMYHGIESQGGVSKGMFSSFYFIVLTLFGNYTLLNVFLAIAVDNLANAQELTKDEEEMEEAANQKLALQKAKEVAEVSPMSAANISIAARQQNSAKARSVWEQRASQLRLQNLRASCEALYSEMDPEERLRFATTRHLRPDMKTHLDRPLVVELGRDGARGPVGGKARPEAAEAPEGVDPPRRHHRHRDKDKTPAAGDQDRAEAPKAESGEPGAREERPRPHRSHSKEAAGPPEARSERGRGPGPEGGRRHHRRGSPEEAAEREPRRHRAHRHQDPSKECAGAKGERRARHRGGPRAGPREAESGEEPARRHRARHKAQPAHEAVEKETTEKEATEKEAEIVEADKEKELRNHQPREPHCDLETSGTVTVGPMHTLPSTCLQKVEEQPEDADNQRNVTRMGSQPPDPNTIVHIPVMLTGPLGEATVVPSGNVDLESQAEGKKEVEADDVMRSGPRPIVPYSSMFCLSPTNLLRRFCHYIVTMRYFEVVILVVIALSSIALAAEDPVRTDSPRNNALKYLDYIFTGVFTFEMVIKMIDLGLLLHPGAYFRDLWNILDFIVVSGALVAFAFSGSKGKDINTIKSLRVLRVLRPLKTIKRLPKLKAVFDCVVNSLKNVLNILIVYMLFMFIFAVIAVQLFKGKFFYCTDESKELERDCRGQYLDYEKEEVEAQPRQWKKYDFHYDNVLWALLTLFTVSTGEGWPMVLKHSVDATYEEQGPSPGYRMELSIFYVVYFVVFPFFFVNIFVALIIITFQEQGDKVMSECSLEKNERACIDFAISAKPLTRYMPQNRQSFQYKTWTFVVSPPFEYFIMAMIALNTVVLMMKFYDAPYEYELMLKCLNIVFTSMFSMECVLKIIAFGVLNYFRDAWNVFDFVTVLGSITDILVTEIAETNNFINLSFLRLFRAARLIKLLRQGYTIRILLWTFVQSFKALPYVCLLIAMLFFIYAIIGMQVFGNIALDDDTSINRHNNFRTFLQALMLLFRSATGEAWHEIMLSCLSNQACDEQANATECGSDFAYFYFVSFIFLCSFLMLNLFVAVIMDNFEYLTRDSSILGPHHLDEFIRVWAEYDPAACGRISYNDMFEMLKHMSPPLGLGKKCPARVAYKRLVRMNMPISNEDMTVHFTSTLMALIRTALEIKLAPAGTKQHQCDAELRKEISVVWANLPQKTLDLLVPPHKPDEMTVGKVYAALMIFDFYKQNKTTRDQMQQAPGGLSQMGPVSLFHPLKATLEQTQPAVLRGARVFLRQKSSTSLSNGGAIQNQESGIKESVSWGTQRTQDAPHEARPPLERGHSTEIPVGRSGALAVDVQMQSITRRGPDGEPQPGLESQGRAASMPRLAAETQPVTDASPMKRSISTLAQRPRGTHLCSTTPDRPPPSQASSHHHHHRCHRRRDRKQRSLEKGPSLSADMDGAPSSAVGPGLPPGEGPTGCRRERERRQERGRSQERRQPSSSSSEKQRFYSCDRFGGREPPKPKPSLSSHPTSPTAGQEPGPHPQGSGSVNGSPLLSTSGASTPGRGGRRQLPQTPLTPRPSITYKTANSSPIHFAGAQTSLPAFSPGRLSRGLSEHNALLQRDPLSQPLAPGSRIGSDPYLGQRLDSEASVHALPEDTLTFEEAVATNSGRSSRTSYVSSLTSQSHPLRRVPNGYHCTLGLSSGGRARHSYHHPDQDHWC
# T4 sequence (Q02410 whole entry): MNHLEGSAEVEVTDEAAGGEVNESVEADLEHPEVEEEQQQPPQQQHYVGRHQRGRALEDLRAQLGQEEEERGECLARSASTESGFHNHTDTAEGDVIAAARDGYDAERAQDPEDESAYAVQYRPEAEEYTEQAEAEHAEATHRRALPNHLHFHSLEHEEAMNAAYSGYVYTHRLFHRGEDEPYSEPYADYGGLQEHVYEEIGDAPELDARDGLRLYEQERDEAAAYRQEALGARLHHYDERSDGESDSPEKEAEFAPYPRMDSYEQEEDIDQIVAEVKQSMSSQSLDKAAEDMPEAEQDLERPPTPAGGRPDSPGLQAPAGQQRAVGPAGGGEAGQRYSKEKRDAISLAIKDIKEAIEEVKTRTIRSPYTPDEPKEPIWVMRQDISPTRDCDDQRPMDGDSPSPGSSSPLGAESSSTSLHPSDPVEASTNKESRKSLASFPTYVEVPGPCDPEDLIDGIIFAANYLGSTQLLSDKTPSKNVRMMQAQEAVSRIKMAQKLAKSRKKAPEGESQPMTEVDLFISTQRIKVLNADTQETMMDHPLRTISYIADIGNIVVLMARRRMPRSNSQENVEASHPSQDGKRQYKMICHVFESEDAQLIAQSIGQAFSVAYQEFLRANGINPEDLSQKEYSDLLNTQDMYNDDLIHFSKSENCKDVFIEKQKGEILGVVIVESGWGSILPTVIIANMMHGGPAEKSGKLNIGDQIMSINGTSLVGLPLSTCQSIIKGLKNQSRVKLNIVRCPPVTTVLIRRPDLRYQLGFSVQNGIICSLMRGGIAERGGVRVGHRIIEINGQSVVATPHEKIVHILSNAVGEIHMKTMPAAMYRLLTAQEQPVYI
# [26] = target: Genome polyprotein (dengue virus type 2, UniProt P29990); assay: flavivirus cap methylation enzyme inhibition – biochemical, confirmation dose response, primary screen (AID 588689); assay type: functional
# [27] = target: T5, Rac GTPase-activating protein 1 (Homo sapiens, UniProt Q9H0H5); assay: blockers of MgcRacGAP-driven Rac1 GTP hydrolysis – biochemical, ADP Hunter fluorescence, primary and confirmatory, confirmation (AID 624330); assay type: functional
# T5 sequence (Q9H0H5 whole entry): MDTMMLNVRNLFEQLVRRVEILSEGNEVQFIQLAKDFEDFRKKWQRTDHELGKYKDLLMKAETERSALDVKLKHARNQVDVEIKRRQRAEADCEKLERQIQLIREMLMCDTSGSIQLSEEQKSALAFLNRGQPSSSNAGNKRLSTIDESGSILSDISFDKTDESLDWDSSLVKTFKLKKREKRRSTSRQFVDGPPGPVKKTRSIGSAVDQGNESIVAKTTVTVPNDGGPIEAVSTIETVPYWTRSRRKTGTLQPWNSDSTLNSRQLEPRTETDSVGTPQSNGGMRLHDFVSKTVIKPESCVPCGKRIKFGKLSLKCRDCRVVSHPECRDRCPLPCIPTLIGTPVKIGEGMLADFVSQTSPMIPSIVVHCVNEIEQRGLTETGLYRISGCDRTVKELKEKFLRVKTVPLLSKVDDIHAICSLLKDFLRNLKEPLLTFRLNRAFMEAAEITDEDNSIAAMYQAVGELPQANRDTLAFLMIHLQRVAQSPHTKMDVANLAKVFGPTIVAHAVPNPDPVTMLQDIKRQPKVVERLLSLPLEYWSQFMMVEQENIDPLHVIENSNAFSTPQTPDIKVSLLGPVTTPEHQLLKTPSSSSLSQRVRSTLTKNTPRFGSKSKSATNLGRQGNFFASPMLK
# [28] = target: T4, Voltage-gated N-type calcium channel alpha-1B subunit/Amyloid beta A4 precursor protein-binding family A member 1; assay type: protein assay; remark: listed apart in the source
# [29] = target: T6, Cytochrome P450 1A2 (Homo sapiens, UniProt P05177);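 note: PubChem cytochrome P450 panel assay, CYP1A2 panel member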
# T6 sequence (P05177 whole entry): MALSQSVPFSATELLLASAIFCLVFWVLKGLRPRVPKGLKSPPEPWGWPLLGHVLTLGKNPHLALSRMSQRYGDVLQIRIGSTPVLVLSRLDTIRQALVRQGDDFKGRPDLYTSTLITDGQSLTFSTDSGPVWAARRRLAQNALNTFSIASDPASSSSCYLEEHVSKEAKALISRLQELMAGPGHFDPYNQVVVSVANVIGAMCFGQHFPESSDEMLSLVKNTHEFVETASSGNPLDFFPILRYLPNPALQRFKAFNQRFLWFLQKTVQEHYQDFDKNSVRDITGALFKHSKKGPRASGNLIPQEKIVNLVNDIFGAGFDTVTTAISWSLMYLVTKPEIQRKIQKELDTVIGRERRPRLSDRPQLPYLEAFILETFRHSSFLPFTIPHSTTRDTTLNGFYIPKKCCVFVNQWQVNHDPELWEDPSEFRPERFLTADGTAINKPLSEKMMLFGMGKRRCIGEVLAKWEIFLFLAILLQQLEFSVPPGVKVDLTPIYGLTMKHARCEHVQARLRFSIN
# [30] = target: T1, Cytochrome P450 3A4
# Chain of 72 kDa type IV collagenase (P08253 whole entry): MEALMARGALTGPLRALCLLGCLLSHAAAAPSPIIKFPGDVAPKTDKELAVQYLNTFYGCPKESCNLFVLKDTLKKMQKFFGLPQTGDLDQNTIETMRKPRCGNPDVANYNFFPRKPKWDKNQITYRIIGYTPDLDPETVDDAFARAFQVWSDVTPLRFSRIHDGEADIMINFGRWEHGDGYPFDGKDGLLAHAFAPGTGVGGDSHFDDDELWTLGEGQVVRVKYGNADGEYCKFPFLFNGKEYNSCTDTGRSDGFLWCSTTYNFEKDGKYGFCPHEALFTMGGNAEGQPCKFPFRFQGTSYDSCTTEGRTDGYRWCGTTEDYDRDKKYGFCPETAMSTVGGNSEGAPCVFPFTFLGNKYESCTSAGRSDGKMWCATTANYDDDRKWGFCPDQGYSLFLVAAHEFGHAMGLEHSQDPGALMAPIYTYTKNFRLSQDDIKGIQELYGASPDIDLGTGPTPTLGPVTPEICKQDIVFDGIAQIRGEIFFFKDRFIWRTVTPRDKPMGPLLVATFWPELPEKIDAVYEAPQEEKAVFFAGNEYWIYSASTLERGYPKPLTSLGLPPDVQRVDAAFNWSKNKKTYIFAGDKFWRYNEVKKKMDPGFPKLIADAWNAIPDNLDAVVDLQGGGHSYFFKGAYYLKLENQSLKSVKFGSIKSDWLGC
smiles,measurement,setting,value
O=C(Nc1ccc(F)cc1)Nc1nnc(-c2ccncc2)s1,IC50,[1],> 100 µM (inactive)
same,IC50,[2],65.5 µM (active)
same,IC50,[3],23.2 µM (active)
same,EC50,[4],25.9 µM (active)
same,EC50,[5],22.4 µM (active)
O=C(C1CC1)N1C[C@@H]2N[C@H](C1)[C@@H]2c1ccc(/C=C/c2ccccc2)cc1,AC50,[6],32.3 µM (active)
COc1cc(/C=C2\N=C3CCCCCN3C2=O)ccc1O,IC50,[1],> 100 µM (inactive)
same,IC50,[2],29.7 µM (active)
same,IC50,[3],14.8 µM (active)
same,IC50,[7],9.11 µM (active)
O=C(NCCO)c1cc(-c2cc(F)c(Cl)cc2Cl)n[nH]1,IC50,[8],> 100 µM (not active)
same,IC50,[9],> 25 µM (inactive)
COC1=C(Nc2ccc(C)cc2)C(=O)c2ccccc2C1=O,IC50,[10],10 µM (active)
CC(Oc1ccccc1)C(=O)NC1C(=O)N2C(C(=O)O)C(C)(C)S[C@@H]12 (some centres undefined),AC50,[11],0.251 µM (inconclusive)
CCN1C(C)=C(C(=O)OC)C(c2ccccc2)N2C(=O)[C@@]3(C(=O)OC)O[C@@]12C1C(=O)CCCC13 (some centres undefined),AC50,[11],3.98 µM (inconclusive)
COc1ccccc1NC(=O)CSc1nn2c(=O)c(C)nnc2s1,IC50,[10],16.1 µM (active)
O=C(NC1(C(F)(F)F)Oc2ccc(Cl)cc2O1)N1CCC2(CC1)OCCO2 (centres undefined),IC50,[9],9.93 µM (active)
Cc1nc(NCCc2ccccc2F)c(C#N)c(C)c1[N+](=O)[O-],IC50,[12],> 50 µM (not active)
O=[N+]([O-])c1cc(-c2nnc(O)c3ccccc23)ccc1NCCCO,IC50,[13],16.3 µM (active)
same,AC50,[6],25 µM (active)
CCOC(=O)C1CCN(C(=O)CCc2nc3sc4c(c3c(=O)[nH]2)CCCC4)CC1,IC50,[1],> 100 µM (inactive)
same,IC50,[2],36.5 µM (active)
same,IC50,[3],31.6 µM (active)
CC(CCC(=O)O)(c1ccc(O)cc1)c1ccc(O)cc1,AC50,[11],39.8 µM (inconclusive)
N#Cc1ccccc1NC(=O)COC(=O)COc1ccccc1[N+](=O)[O-],IC50,[12],9.18 µM (active)
CCOc1cc(C(=S)N2CCOCC2)ccc1O,IC50,[14],> 64 µM (inactive)
same,IC50,[15],42.8 µM (active)
O=c1c(O)c(-c2ccc(O)c(O)c2)oc2c(OC3OC(CO)C(O)C(O)C3O)c(O)cc(O)c12 (centres undefined),AC50,[11],39.8 µM (inconclusive)
COc1cc([N+](=O)[O-])ccc1-c1ccc(/C=N/NC(=O)c2ccccc2O)o1,EC50,[16],> 20 µM (inactive)
same,IC50,[17],8.3 µM (not active)
same,EC50,[18],> 20 µM (inactive)
same,IC50,[19],> 20 µM (inactive)
same,IC50,[20],> 20 µM (inactive)
same,IC50,[21],19.9 µM (active)
same,IC50,[22],14.1 µM (inactive)
CC(=O)C1=C(O)C(=CC=Cc2ccccc2)OC1=O,IC50,[1],> 100 µM (inactive)
same,IC50,[2],50.4 µM (active)
same,IC50,[3],35.2 µM (active)
COc1ccc(Oc2c(Cl)cnn(-c3ccccc3)c2=O)cc1,AC50,[23],11.2 µM (inconclusive)
same,AC50,[6],19.7 µM (active)
O=C(c1cccs1)n1nc(-c2ccco2)nc1SCc1ccccc1,IC50,[12],1.48 µM (active)
same,EC50,[24],> 195 µM (not active)
O=C(O)CCCNC(=O)/C=C/c1ccco1,IC50,[25],17.1 µM (active)
same,IC50,[26],> 100 µM (active)
same,IC50,[27],151 µM (active)
same,IC50,[28],13.6 µM (active)
c1ccc(-n2nnc3cnccc32)cc1,IC50,[14],> 64 µM (inactive)
CCc1c(C)sc(NC(=O)C2CCCCC2C(=O)O)c1C(N)=O (centres undefined),IC50,[14],> 64 µM (inactive)
NS(=O)(=O)c1ccc(CCNC(=O)/C=C/c2ccc([N+](=O)[O-])cc2)cc1,IC50,[25],9.65 µM (active)
same,IC50,[28],> 50 µM (inactive)
Cc1ccc(SCc2cc(=O)[nH]c(NC(N)=Nc3ccc(C)c(C)c3)n2)cc1,AC50,[29],5.62 µM (inconclusive)
same,AC50,[23],2.24 µM (inconclusive)
same,IC50,[14],> 64 µM (inactive)
same,AC50,[30],7.08 µM (inconclusive)
